Tests used:
Format in all cases: biochemical
CDK1-cyclin B = CDK1-cyclin B (Homo sapiens, UniProt P06493); test: Kinase assay (radioactive phosphate incorporation), CDK1-cyclin B; details: read-out: Kinase Inhibition pIC50 CDK1-cyclin B (converted)
In short: (§1)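 Recombinant kinases (2-4 μg) with polypeptide substrates in pH 7.4 MOPS/β-glycerophosphate buffer. Reactions started with 15 mM MgCl2 + 100 μM ATP containing [γ-32P]-ATP and incubated at 30° C. Filter-bound incorporated radioactivity counted by scintillation; compounds diluted from DMSO stocks into 10% DMSO buffer.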

CDK2-cyclin A = CDK2-cyclin A (Homo sapiens, UniProt P24941); test: Kinase assay (radioactive phosphate incorporation), CDK2-cyclin A; details: read-out: Kinase Inhibition pIC50 CDK2-cyclin A (converted)
Procedure: Kinase assays. The compounds of the invention above were investigated for their ability to inhibit the enzymatic activity of various protein kinases (Table 2). This was achieved by measurement of incorporation of radioactive phosphate from ATP into appropriate polypeptide substrates. Recombinant protein kinases and kinase complexes were produced or obtained commercially. Assays were performed using 96-well plates and appropriate assay buffers (typically 25 mM β-glycerophosphate, 20 mM MOPS, 5 mM EGTA, 1 mM DTT, 1 mM […], pH 7.4), into which were added 2-4 μg of active enzyme with appropriate substrates. The reactions were initiated by addition of Mg/ATP mix (15 mM MgCl2+100 μM ATP with 30-50 kBq per well of [γ-^32P]-ATP) and mixtures incubated as required at 30° C. Reactions were stopped on ice, followed by filtration through p81 filterplates or GF/C filterplates (Whatman Polyfiltronics, Kent, UK). After washing 3 times with 75 mM aq orthophosphoric acid, plates were dried, scintillant added and incorporated radioactivity measured in a scintillation counter (TopCount, Packard Instruments, Pangbourne, Berks, UK). Compounds for kinase assay were made up as 10 mM stocks in DMSO and diluted into 10% DMSO in assay buffer.

CDK2-cycline E = CDK2-cycline E (Homo sapiens, UniProt P24941); test: Kinase assay (radioactive phosphate incorporation), CDK2-cyclin E; details: read-out: Kinase Inhibition pIC50 CDK2-cycline E (converted)
In short: as §1

CDK4-cyclin D1 = CDK4-cyclin D1 (Homo sapiens, UniProt P11802); test: Kinase assay (radioactive phosphate incorporation), CDK4-cyclin D1; details: read-out: Kinase Inhibition pIC50 CDK4-cyclin D1 (converted)
CDK4-cyclin D1, sequence (P11802 whole entry): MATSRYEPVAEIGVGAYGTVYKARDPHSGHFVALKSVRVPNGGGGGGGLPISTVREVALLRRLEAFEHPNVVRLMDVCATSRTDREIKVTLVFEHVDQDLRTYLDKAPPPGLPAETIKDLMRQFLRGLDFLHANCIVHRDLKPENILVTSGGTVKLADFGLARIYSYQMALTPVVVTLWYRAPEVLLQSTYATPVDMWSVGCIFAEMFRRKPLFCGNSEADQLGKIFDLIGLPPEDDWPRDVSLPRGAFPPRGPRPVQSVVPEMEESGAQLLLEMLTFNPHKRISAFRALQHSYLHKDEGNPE
CDK4-cyclin D1, sequence (P24385 whole entry partner): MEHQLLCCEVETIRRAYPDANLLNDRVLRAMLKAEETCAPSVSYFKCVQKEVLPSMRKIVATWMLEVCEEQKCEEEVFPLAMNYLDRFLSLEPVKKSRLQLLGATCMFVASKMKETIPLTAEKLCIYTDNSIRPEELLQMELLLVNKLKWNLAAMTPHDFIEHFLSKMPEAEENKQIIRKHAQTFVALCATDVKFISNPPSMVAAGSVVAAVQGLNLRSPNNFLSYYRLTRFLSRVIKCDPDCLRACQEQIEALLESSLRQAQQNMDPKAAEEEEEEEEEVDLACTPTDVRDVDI
In short: as §1

CDK7/cyclin H = CDK7/cyclin H (Homo sapiens, UniProt P50613); test: CDK 7 assay (CTD peptide substrate); details: read-out: Kinase Inhibition pIC50 CDK7-cyclin H (converted)
CDK7/cyclin H, sequence (P50613 whole entry): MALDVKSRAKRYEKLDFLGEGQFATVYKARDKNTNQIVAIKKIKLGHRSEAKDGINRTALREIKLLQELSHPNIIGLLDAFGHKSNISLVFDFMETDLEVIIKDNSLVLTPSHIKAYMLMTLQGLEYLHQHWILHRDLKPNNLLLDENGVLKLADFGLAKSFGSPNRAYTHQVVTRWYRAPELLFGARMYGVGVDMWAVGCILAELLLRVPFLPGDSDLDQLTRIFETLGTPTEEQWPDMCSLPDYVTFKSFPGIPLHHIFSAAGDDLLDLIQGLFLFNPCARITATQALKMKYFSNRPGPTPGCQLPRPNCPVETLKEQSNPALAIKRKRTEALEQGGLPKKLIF
CDK7/cyclin H, sequence (P51946 whole entry partner): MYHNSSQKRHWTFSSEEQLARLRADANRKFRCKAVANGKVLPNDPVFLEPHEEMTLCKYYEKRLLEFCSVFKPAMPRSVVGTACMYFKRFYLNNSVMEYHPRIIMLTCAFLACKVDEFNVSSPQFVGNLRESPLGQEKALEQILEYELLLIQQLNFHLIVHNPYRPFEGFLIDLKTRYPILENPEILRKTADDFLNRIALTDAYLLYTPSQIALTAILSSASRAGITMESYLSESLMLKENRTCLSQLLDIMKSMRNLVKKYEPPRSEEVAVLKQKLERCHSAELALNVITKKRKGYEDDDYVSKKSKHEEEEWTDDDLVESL
In short: (§2)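 Radiometric assay: recombinant human CDK9/cyclin T1 or CDK7/cyclin H with biotinylated CTD heptapeptide-repeat substrate, 100 μM ATP with [γ-32P]ATP, 15 mM MgCl2, MOPS pH 7.2, 45 min at 30 °C. Avidin-captured substrate filtered onto P81; 32P incorporation counted by scintillation.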

CDK9/cyclin T1 = CDK9/cyclin T1 (Homo sapiens, UniProt P50750); test: CDK 9 assay (CTD peptide substrate); details: read-out: Kinase Inhibition pIC50 CDK9-cyclin T1 (converted)
CDK9/cyclin T1, sequence (P50750 whole entry): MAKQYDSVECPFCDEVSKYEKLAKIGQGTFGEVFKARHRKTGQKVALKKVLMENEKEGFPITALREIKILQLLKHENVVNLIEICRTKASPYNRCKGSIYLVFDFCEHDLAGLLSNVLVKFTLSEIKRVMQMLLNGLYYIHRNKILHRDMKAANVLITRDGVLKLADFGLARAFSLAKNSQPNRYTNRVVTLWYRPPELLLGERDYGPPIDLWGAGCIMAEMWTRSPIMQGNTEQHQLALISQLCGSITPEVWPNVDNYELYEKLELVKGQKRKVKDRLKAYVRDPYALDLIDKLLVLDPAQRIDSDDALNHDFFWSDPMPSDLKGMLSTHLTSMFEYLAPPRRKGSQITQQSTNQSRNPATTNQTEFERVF
CDK9/cyclin T1, sequence (O60563 whole entry partner): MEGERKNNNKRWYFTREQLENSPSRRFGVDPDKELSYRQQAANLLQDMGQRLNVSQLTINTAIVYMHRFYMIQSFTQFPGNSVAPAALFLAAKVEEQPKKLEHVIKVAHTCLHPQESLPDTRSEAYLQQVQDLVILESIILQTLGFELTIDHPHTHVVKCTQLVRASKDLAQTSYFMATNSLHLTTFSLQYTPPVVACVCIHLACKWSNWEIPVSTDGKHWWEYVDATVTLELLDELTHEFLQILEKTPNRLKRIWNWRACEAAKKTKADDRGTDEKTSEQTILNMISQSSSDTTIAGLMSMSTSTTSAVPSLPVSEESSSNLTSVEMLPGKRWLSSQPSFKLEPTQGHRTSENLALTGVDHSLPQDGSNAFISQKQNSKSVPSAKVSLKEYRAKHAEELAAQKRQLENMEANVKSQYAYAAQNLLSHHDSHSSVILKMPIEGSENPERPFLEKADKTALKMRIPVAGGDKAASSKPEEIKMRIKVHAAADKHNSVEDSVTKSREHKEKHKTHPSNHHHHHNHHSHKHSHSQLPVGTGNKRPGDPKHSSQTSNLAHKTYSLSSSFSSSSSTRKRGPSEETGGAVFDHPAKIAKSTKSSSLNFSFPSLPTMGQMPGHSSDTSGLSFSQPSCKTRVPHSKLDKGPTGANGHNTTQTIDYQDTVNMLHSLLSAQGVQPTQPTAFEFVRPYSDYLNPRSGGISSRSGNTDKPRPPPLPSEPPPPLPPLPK
In short: as §2

GSK3b = GSK3b (Homo sapiens, UniProt P49841); test: Kinase assay (radioactive phosphate incorporation), GSK-3b; details: read-out: Kinase Inhibition pIC50 GSK-3b (converted)
GSK3b, sequence (P49841 whole entry, species assumed): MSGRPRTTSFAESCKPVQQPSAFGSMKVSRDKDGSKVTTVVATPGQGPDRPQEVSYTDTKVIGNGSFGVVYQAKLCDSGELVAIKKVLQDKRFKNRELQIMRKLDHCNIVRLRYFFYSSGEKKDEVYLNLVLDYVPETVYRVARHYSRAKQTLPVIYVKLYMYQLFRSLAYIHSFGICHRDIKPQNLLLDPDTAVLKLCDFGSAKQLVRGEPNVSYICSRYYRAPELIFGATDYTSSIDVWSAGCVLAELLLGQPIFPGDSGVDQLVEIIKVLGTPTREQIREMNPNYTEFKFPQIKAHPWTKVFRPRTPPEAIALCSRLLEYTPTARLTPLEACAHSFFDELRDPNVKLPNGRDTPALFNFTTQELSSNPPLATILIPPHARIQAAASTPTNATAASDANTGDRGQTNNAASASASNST
In short: as §1

Aurora A kinase = biological target: T1, Aurora A kinase (Homo sapiens, UniProt O14965); test: Aurora-A (human) kinase assay (Kemptide substrate); details: pIC50 is -log(IC50, M); 15 μM ATP; read-out: Kinase Inhibition pIC50 Aurora A kinase (converted)
T1 construct: purchased
T1 sequence (O14965 1-403): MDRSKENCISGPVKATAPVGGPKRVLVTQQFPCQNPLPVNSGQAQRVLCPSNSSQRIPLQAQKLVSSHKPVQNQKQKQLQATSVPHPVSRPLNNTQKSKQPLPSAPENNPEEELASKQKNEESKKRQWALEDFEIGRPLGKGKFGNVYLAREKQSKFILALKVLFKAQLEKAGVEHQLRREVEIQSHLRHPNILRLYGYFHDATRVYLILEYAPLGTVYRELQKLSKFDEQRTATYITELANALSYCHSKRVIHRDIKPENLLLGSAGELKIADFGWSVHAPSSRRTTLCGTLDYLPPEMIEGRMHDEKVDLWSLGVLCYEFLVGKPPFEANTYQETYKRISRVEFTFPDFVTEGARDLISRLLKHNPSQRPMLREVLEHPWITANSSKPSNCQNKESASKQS
In short: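 Radiometric filter-binding assay: commercial aurora-A kinase (5-10 ng) with 200 μM Kemptide in MOPS/EDTA pH 7.0, started with 10 mM Mg acetate and 15 μM ATP plus [γ-33P]-ATP. Incubated 40 min at room temperature, stopped with phosphoric acid, incorporated 33P counted by scintillation.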

CDK1-cyclin B, sequence (P06493 whole entry): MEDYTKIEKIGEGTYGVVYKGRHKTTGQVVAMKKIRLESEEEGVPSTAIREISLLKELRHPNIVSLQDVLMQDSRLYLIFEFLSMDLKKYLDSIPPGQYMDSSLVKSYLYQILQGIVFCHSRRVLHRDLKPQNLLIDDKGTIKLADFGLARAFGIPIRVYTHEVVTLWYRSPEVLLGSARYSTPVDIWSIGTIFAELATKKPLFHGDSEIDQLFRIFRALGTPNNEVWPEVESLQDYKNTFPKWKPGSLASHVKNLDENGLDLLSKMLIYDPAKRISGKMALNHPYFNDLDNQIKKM
CDK1-cyclin B, sequence (P14635 whole entry partner): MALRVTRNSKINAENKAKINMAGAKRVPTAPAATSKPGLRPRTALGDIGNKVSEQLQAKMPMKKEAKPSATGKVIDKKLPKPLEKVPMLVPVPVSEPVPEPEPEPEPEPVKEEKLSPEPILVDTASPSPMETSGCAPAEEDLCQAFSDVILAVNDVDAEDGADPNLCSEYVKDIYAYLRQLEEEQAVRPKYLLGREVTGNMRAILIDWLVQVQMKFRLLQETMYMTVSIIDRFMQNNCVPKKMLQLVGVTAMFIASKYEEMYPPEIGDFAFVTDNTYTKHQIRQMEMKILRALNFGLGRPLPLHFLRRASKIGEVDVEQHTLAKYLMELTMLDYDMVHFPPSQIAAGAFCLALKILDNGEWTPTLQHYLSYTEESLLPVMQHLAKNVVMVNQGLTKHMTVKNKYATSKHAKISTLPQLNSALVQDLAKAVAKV

CCNc1nc(C)c(-c2ccnc(Nc3ccc(S(=O)(=O)NCCOC)cc3)n2)s1 [Compound 39, 4-[4-(2-Ethylamino-4-methyl-thiazol-5-yl)-pyrimidin-2-ylamino]-N-(2-methoxy-ethyl)-benzenesulfonamide] showed an IC50 (CDK1-cyclin B) of 50.1 nM, an IC50 (CDK2-cyclin A) of 12.6 nM and an IC50 (CDK2-cycline E) of 15.8 nM. The IC50 (CDK4-cyclin D1) was 501 nM, the IC50 (CDK7/cyclin H) was 631 nM and the IC50 (CDK9/cyclin T1) was 200 nM. For the same compound, the IC50 (GSK3b) was 5010 nM and the IC50 (Aurora A kinase) was 126 nM.

Cc1nc(C)c(-c2ccnc(Nc3ccc(S(=O)(=O)NCCO)cc3)n2)s1 [Compound 69, 4-[4-(2,4-Dimethyl-thiazol-5-yl)-pyrimidin-2-ylamino]-N-(2-hydroxy-ethyl)-benzenesulfonamide] was tested, and the IC50 (CDK1-cyclin B) was 10 nM, the IC50 (CDK2-cyclin A) was 20 nM and the IC50 (CDK2-cycline E) was 10 nM. For the same compound, the IC50 (CDK4-cyclin D1) was 1000 nM, the IC50 (CDK7/cyclin H) was 2000 nM and the IC50 (CDK9/cyclin T1) was 398 nM. For the same compound, the IC50 (GSK3b) was 1580 nM and the IC50 (Aurora A kinase) was 79.4 nM.

In the case of CC(=O)NS(=O)(=O)c1cccc(Nc2nccc(-c3sc(N)nc3C)n2)c1 [Compound 64, N-Acetyl-3-[4-(2-amino-4-methyl-thiazol-5-yl)-pyrimidin-2-ylamino]-benzenesulfonamide], the IC50 (CDK1-cyclin B) is reported as 6310 nM, the IC50 (CDK2-cyclin A) is reported as 2510 nM and the IC50 (CDK2-cycline E) is reported as 398 nM. For the same compound, the IC50 (CDK4-cyclin D1) was 398 nM, the IC50 (CDK7/cyclin H) was 1580 nM and the IC50 (CDK9/cyclin T1) was 251 nM. The IC50 (GSK3b) was 1580 nM and the IC50 (Aurora A kinase) was 200 nM.

Compound Cc1nc(C)c(-c2ccnc(Nc3cccc(S(=O)(=O)NCCO)c3)n2)s1 [Compound 78, 3-[4-(2,4-Dimethyl-thiazol-5-yl)-pyrimidin-2-ylamino]-N-(2-hydroxy-ethyl)-benzenesulfonamide] has an IC50 (CDK1-cyclin B) of 2000 nM, an IC50 (CDK2-cyclin A) of 2000 nM and an IC50 (CDK2-cycline E) of 316 nM. It also gave an IC50 (CDK4-cyclin D1) of 501 nM, an IC50 (CDK7/cyclin H) of 1260 nM and an IC50 (CDK9/cyclin T1) of 158 nM. The IC50 (GSK3b) was 1000 nM and the IC50 (Aurora A kinase) was 631 nM.

Compound Cc1nc(C)c(-c2ccnc(Nc3cccc(CNC(=O)c4ccccc4)c3)n2)s1 [Compound 9, N-{3-[4-(2,4-Dimethyl-thiazol-5-yl)-pyrimidin-2-ylamino]-benzyl}-benzamide] has an IC50 (CDK1-cyclin B) of 631 nM, an IC50 (CDK2-cyclin A) of 1000 nM and an IC50 (CDK2-cycline E) of 158 nM. For the same compound, the IC50 (CDK4-cyclin D1) was 251 nM, the IC50 (CDK7/cyclin H) was 5010 nM and the IC50 (CDK9/cyclin T1) was 501 nM. The IC50 (GSK3b) was 2000 nM and the IC50 (Aurora A kinase) was 158 nM.

Cc1nc(C)c(-c2ccnc(Nc3cccc(S(C)(=O)=O)c3)n2)s1 [Compound 4, [4-(2,4-Dimethyl-thiazol-5-yl)-pyrimidin-2-yl]-(3-methanesulfonyl-phenyl)-amine] gave an IC50 (CDK1-cyclin B) of 501 nM, an IC50 (CDK2-cyclin A) of 1000 nM and an IC50 (CDK2-cycline E) of 316 nM. It also gave an IC50 (CDK4-cyclin D1) of 1260 nM, an IC50 (CDK7/cyclin H) of 1000 nM and an IC50 (CDK9/cyclin T1) of 251 nM. For the same compound, the IC50 (GSK3b) was 398 nM and the IC50 (Aurora A kinase) was 251 nM.

Source: US20090137572A1, “2-substituted-4-heteroaryl-pyrimidines useful for the treatment of proliferative disorders” (priority 2004, published 2009)
